For one series, the system named is 9L glioma. In words: Survival study, 9L/Fischer rats, treatment on days 7, 8 and 9 post tumor implantation. In kind it is in vivo, rat. Particulars: treatment on days 7, 8 & 9; Levitra 10 mg/kg oral, Adriamycin 2 mg/kg i.v.; control 21.8. An excerpt: Adult, female Fischer rats (180-200 g) were implanted with 9L glioma cells (100,000 cells). […] 15, 2006.
Rats were monitored daily to determine survival times of the tumor-bearing rats for either death or when animals became moribund, euthanasia was employed.

For a further series, the system named is 9L gliosarcoma. In words: Survival study, 9L/Luc gliosarcoma-bearing rats, treatment for three days from day 4. In kind it is in vivo, rat. The following applies: vardenafil 10 mg/kg oral, Adriamycin 2 mg/kg i.v., saline 32±2. From the text: A p-value of less than 0.05 was considered statistically significant.
The subject of another series is 9L gliosarcoma (9L/Luc). In words: Tumor size monitoring by bioluminescence imaging and histology. The following applies: day 9 after the last treatment; saline (2.21±1.27)×10^6.
Series [1] deals with blood-tumor barrier (BTB) of 9L gliosarcoma brain tumors. Put plainly: [14C] sucrose transport (Ki) from blood into 9L brain tumors, quantitative autoradiography. In kind it is in vivo, rat.
The subject of the next series is caveolae endocytosis. In words: In vitro cellular transport of 14C-sucrose with inhibitor of caveolae endocytosis. In kind it is cell-based. An excerpt: To determine whether this is the case for PDE5 inhibitors, the inventor used filipin, an inhibitor of caveolae endocytosis, in the in vitro cellular transport study (FIG. 21; P<0.05 vs. other two treatments). As shown, fillipin abolished the increased transport of ^14C-sucrose by sildenafil. […] As vesicular transport is not specific to brain microvessels per se, the inventor, while not wishing to be bound by any particular theory, believes the mechanism may be responsible for the increased cellular permeability by PDE5 inhibitors in non-CNS cells studied above.

Series [2] can be described thus: Animal physiologic parameters (mean arterial blood pressure, blood gases, side effects). In kind it is in vivo, rat. Particulars: for reduction in mean-arterial blood pressure: BK femoral infusion, sildenafil 5-100 mg/kg or vardenafil 1-20 mg/kg oral; for detectable side effects (e.g. hypotension): oral doses used in the rats. How it is done: For Ki study described below, six days after tumor implantation, the rats were anesthetized with ketamine/xylazine. One femoral vein was cannulated for administration of the appropriate drug and the radiotracer; one femoral artery was cannulated to withdraw arterial blood, and another femoral artery was cannulated to monitor systemic blood pressure. Body temperature was maintained at 37° C., and arterial blood gases, blood pressure and hematocrit were monitored.
Mean-arterial blood pressures were decrease approximately 30% secondary to the femoral infusion of BK.

Series [3] deals with cGMP. In words: Plasma cGMP assay in 9L tumor-bearing rats. In kind it is in vivo, rat. As for the experimental part: cGMP levels were determined using a ELISA-based kit (Cayman Chemical Co., Ann Arbor, Mich.) for plasma and immunohistocytochemistry with anti-cGMP antibody (Chemicon Corp.) for tissue sections.
Intracerebral inoculations of 9L tumor cells were performed as described above. […] Different groups of rats were anesthetized 5 minutes before and at 30, 60, 90 and 120 minutes after treatment respectively and the femoral vein was cannulated. Blood was collected and the plasma was separated. The cGMP concentration in the plasma was determined using a commercially available ^125I-labeled cGMP assay kit (Amersham, Arlington Heights, Ill.). cGMP content was expressed as pmol/ml of plasma.

For series [4], the system named is cGMP. Put plainly: Brain cGMP immunohistochemistry in 9L tumor-bearing rats. Particulars: oral vardenafil 10 mg/kg. In kind it is in vivo, rat.
Series [5] concerns mouse brain endothelial cells. Put plainly: In vitro cellular transport of 14C-sucrose, brain endothelial cells. In kind it is cell-based.
In series [6] the test system is vessel endothelial cells derived from lung tissues (PVEC). In words: In vitro cellular transport of 14C-sucrose, lung vessel endothelial cells. In kind it is cell-based. The following applies: PVECs.
In series [7] the test system is human brain metastatic lung cancer cell line CRL-5904. In words: In vitro 14C-sucrose transport across tumor cells in transwell, CRL-5904. In kind it is cell-based. As for the experimental part: (§1) In addition to endothelial cells, the inventor tested whether the inhibition of PDE5 has any effect on tracer transport in other tumor cells. In the studies, two tumor cell lines (human brain metastatic lung cancer cell line CRL-5904 and human breast cancer cell line MDA-MB-231) were tested.

Series [8] has as its system human breast cancer cell line MDA-MB-231. In words: In vitro 14C-sucrose transport across tumor cells in transwell, MDA-MB-231. In kind it is cell-based. As for the experimental part:
as §1

The mark [9] stands for this setting: femoral infusion of BK or oral sildenafil or vardenafil.

Structures can show the parent of a compound that is named as a salt. No end group written: not given here.

For `COc1cccc2c1C(=O)c1c(O)c3c(c(O)c1C2=O)C[C@@](O)(C(=O)CO)C[C@@H]3O[C@H]1C[C@H](N)[C@H](O)[C@H](C)O1` [Adriamycin® (doxorubicin), doxorubicin hydrochloride], in the series with 9L glioma, the “Mean Survival Days, Mean” value was determined as 30 days. Also, the mean survival time in the series with 9L gliosarcoma turned out to be 42 ± 2 days. Besides, the “intracerebral tumor size (IVIS bioluminescence)” value in the series on 9L gliosarcoma (9L/Luc) is reported as “(1.03±0.28)×10^6”.
As for “iberiotoxin (QFTDVDCSVSKECWSVCKDLFGVDRGKCMGKKCRCYQ; UniProt P24663 1-37, looked up)”, the “effect on vardenafil-induced BTB transport increase” value in series [1] (iberiotoxin 0.26 μg/kg/min infused 15 min with oral vardenafil 10 mg/kg) is reported as “abolished”.
For the compound `CCCCC[C@@H](O)[C@H]1C(=O)O[C@H](C)[C@@H](O)/C=C/C=C/C=C/C=C/C=C(\C)[C@@H](O)C[C@H](O)C[C@H](O)C[C@H](O)C[C@H](O)C[C@H](O)C[C@@H]1O` [fillipin, filipin], in the series on caveolae endocytosis, the “effect on the increased transport of 14C-sucrose by sildenafil” value is “abolished”.
Take RPPGFSPFR [BK, Bradykinin]: the “arterial blood pH, carbon dioxide, and partial pressure of oxygen” value (from here on “arterial blood pH, carbon dioxide”) in series [2] (rat, in vivo, po) was “not changed significantly”.
`CCCc1nc(C)c2c(=O)[nH]c(-c3cc(S(=O)(=O)N4CCN(CC)CC4)ccc3OCC)nn12` [vardenafil]: the “reduction in mean-arterial blood pressure” value in series [2] was 10%. Moreover, the “arterial blood pH, carbon dioxide” value in series [2] (setting [9]) is listed as “not changed significantly”. The entries for the “detectable side effects (e.g. hypotension)” value (from here on “detectable side effects”) in series [2] and in [2] (listed as Levitra®) were “did not result in any detectable side effects” and “did not induce hypotension”, respectively. Besides, the “plasma cGMP level” value came out at 54.96 ± 25.13 pg/mL with cGMP [3] (30 minutes after oral vardenafil 10 mg/kg, control 0.72±0.48); 79.20 ± 37.36 pg/mL in the series with cGMP [3] (60 minutes after oral vardenafil 10 mg/kg); 30.13 ± 17.82 pg/mL with cGMP [3] (90 minutes after oral vardenafil 10 mg/kg). Also, the “time of peak plasma cGMP concentration” value in the series with cGMP [3] (oral vardenafil 10 mg/kg) was 60 min. The “time at which tumor cGMP immunostaining returned to the baseline” value with cGMP [4] turned out to be 90 min. In addition, the “Mean Survival Days, Mean” value in the series on 9L glioma came out at 22.7 days. For the same compound, the mean survival time in the series with 9L gliosarcoma was found to be 35 ± 1 days.
Take `CCCc1nn(C)c2c(=O)[nH]c(-c3cc(S(=O)(=O)N4CCN(C)CC4)ccc3OCC)nc12` [sildenafil]: in series [1] (rat, in vivo), the “dose giving maximal effect on permeability” value is 50 mg/kg, the “increase in BTB permeability” value came out at 1.8 fold and the “time of maximum transport across the BTB into tumor tissues after administration” value is 60 min. In [2], the “reduction in mean-arterial blood pressure” value was determined as 10% and the “detectable side effects” value is recorded as “did not result in any detectable side effects”. For the same compound, in series [2] (setting [9]), the “arterial blood pH, carbon dioxide” value is on record as “not changed significantly”. Moreover, the “detectable side effects” value in [2] (listed as Viagra®) is listed as “did not induce hypotension”. In addition, the 14C-sucrose transport result in series [5] was “significantly increased”. Also, the 14C-sucrose transport entry in [6] is listed as “significantly increased”. In addition, the “14C-sucrose transport across cells seeded in the transwell” value in [7] was “increased”. Moreover, the “14C-sucrose transport across cells seeded in the transwell” value in series [8] is reported as “increased”.

For the origin of these results see US20090048179A1, “USE OF 5-PHOSPHODIESTERASE INHIBITORS TO ENHANCE THE PERMEABILITY OF THE BLOOD-BRAIN BARRIER OF ABNORMAL BRAIN TISSUE AND THE BLOOD-TUMOR BARRIER” (CEDARS-SINAI MEDICAL CENTER, priority 2005, published 2009).
